In test [1] the target is T1, glucocorticoid receptor (GR) (Mus musculus, UniProt P06537).
T1 construct: RNA transcripts were then extracted from mouse ears; from tissue; host or cells: ear skin of Balb/C mice (in vivo topical treatment)
T1 sequence (P06537 1-792): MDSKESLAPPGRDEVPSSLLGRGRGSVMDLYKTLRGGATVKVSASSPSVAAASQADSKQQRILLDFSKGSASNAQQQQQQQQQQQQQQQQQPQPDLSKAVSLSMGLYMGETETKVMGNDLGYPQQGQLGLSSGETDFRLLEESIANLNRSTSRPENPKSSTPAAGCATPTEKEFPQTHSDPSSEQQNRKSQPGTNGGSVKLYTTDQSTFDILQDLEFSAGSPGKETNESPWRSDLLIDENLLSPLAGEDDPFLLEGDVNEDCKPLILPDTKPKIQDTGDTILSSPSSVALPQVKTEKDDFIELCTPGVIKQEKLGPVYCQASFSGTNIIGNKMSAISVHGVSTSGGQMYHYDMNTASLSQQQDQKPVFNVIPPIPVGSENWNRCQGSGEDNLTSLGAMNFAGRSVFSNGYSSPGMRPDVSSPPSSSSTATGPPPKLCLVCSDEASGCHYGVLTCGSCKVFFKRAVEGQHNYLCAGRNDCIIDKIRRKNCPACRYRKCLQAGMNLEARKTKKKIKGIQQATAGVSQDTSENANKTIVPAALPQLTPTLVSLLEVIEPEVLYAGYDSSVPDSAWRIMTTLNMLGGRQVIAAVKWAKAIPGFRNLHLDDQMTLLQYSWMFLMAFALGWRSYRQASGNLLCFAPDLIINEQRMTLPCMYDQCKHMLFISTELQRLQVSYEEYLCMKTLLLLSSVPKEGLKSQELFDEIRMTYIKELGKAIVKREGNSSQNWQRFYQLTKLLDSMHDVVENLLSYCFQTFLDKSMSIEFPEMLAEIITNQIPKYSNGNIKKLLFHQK
Description: In vivo transcriptional analysis (q-RT-PCR) of the three GR functions in mouse ears. To be noted: topical 18 hours. Details: species or system Balb/C mice. As for the experimental part: RNA transcripts were then extracted from mouse ears and the transcripts of 4 genes were analyzed by q-RT-PCR: • (i) the directly GR-transactivated gene of the mTOR inhibitor REDD1, • (ii) the GR-directly transrepressed gene of keratin 5 (K5) and • (iii) the GR-indirectly “tethered” transrepressed genes of interleukin-1β (IL-1β) and interleukin-6 (IL-6), both being activated in presence of 12-O-tetradecanoylphorbol-13-acetate (TPA). Results

The subject of test [2] is OVA-induced asthma-like allergic lung inflammation. Put plainly: Ovalbumin (OVA)-induced asthma-like allergic lung inflammation. The class given is in vivo, mice. To be noted: OVA model. On the procedure: Glucocorticoids have been (Pearlman et al., 1997. Ann Allergy Asthma Immunol. 78(4):356-62), and are still, widely used in asthma therapy. In order to investigate the possible CpdX anti-inflammatory activity in vivo, mice were sensitized and challenged with either ovalbumin (OVA) or house dust mite (HDM) to induce an asthma-like allergic lung inflammation.
Mice were intraperitoneally sensitized with either 50 μg OVA together with alum or with alum alone on D0, D7 and D14. Mice were then subdivided into three groups, and on D19, D20 and D21, they were intranasally (i.n.) challenged with 10 μg OVA. The first and the second group received intranasally 0.5 mg/kg of body weight of Dex or CpdX respectively, while the third group served as a control.
On D22, the lung allergic inflammation was assessed for each mouse by examination of the bronchoalveolar lavage fluid (BAL). The total BAL cells, eosinophils, neutrophils, macrophages and lymphocytes were counted. RNA transcripts were extracted from lung samples and RNA transcripts of IL-1β, IL-6, IL-4, IL-5, IL-10, IL-13, Eotaxin, CCL4 and TNFα were analyzed by q-RT-PCR. Histological (with H&E staining) and immunohistochemical (with eosinophil-specific and neutrophil-specific antibodies) analyses of lung tissues were also carried out.

For test [3], the target named is T2, GR (Homo sapiens, UniProt P04150).
T2 sequence (P04150 1-777): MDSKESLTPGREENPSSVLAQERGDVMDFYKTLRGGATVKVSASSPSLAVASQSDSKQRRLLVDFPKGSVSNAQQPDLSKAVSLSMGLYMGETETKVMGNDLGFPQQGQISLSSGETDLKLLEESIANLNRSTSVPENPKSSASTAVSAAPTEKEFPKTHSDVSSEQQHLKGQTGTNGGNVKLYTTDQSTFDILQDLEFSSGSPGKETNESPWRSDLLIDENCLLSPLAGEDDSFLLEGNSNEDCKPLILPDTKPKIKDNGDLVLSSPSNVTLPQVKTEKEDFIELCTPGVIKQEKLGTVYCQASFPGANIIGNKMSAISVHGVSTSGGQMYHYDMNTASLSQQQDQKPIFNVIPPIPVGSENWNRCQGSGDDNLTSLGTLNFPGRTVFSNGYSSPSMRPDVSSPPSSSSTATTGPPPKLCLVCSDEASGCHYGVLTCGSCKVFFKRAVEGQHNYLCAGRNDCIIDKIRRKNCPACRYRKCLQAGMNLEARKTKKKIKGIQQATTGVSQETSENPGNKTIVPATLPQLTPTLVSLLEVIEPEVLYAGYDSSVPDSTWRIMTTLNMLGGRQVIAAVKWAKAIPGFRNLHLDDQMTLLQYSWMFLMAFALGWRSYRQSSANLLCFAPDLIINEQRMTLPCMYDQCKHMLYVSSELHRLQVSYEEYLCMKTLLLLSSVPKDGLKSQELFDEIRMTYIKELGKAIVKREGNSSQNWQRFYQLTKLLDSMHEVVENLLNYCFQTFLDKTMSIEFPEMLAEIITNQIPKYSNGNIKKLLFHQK
The settings on record: cited from earlier work.

Take `COc1ccc(F)cc1C(C)(C)CC(O)(CNc1ccc2c(c1)COC2=O)C(F)(F)F` (racemic) [CpdX, 5-[4-(5-fluoro-2-methoxyphenyl)-2-hydroxy-4-methyl-2-(trifluoromethyl)pentylamino]-isobenzofuran-1(3H)-one]: the “GR functions induced (direct transactivation, direct transrepression, indirect tethered transrepression)” value in test [1] (1 nmole/cm^2) is “selectively exhibits an indirect tethered transrepression activity”. In test [1] (1 nmole/cm^2, vs Vehicle), the “K5 gene relative RNA expression (GR direct transrepression)” value was “unchanged” and the “REDD1 gene relative RNA expression (GR direct transactivation)” value is on record as “unchanged”. Besides, in test [2] (data not shown), the “eosinophils and neutrophils in lung (immunohistochemistry)” value was “similarly decreased”. Moreover, in test [2] (intranasal 0.5 mg/kg, D22), the “number of macrophages in BAL” value is recorded as “unchanged”. In addition, the “total number of BAL cells, eosinophils, neutrophils and lymphocytes” value in test [2] (intranasal 0.5 mg/kg, D22, vs control group) is reported as “significantly decreased”. In test [2] (lung paraffin sections), the “peribronchiolar and perivascular inflammatory cell infiltration (histology)” value is reported as “strongly decreased”. Further, in test [2] (q-RT-PCR), the “lung expression of IL-1β, IL-6, IL-4, IL-5, IL-10, IL-13, Eotaxin, CCL4 and TNFα” value was “significantly and similarly decreased”. Besides, in test [3], the “indirect tethered transrepression activity of the GR” value was “still inducing”; the “transactivation and direct transrepression functions of the GR” value is “does not induce”.
